Test: xn = mol fraction of the nth substance listed
Conditions: 101 kPa, Liquid; for mass density: Vibrating tube method; for speed of sound: Frequency=3 MHz, Sing-around technique in a fixed-path interferometer

CN1CCCC1=O [N-methylpyrrolidone] + CC#N
Conditions | mass density [kg/m3] | speed of sound [m/s]
293.15 K, x1 = 0.0997 | 826.597 | –
293.15 K, x1 = 0.2019 | 865.011 | –
293.15 K, x1 = 0.2953 | 895.168 | –
293.15 K, x1 = 0.4033 | 925.343 | –
293.15 K, x1 = 0.4999 | 948.634 | –
293.15 K, x1 = 0.5645 | 962.588 | –
293.15 K, x1 = 0.6971 | 987.869 | –
293.15 K, x1 = 0.7909 | 1002.68 | –
293.15 K, x1 = 0.8906 | 1018.29 | –
293.15 K, x1 = 1 | 1032.25 | –
298.15 K, x1 = 0.0997 | 821.365 | 1311.6
298.15 K, x1 = 0.2019 | 859.919 | 1345.4
298.15 K, x1 = 0.2953 | 890.188 | 1375
298.15 K, x1 = 0.4033 | 920.48 | 1407.6
298.15 K, x1 = 0.4999 | 943.847 | 1434.4
298.15 K, x1 = 0.5645 | 957.857 | 1450.8
298.15 K, x1 = 0.6971 | 983.231 | 1483.7
298.15 K, x1 = 0.7909 | 998.089 | 1503.3
298.15 K, x1 = 0.8906 | 1013.76 | 1524.8
298.15 K, x1 = 1 | 1027.79 | 1544.6
303.15 K, x1 = 0.0997 | 816.101 | 1291.8
303.15 K, x1 = 0.2019 | 854.802 | 1325.7
303.15 K, x1 = 0.2953 | 885.193 | 1355.4
303.15 K, x1 = 0.4033 | 915.6 | 1387.9
303.15 K, x1 = 0.4999 | 939.067 | 1414.8
303.15 K, x1 = 0.5645 | 953.126 | 1430.7
303.15 K, x1 = 0.6971 | 978.597 | 1463.6
303.15 K, x1 = 0.7909 | 993.514 | 1483.2
303.15 K, x1 = 0.8906 | 1009.25 | 1505.1
303.15 K, x1 = 1 | 1023.33 | 1525.3
308.15 K, x1 = 0.0997 | 810.812 | 1272
308.15 K, x1 = 0.2019 | 849.665 | 1306
308.15 K, x1 = 0.2953 | 880.18 | 1335.8
308.15 K, x1 = 0.4033 | 910.709 | 1367.7
308.15 K, x1 = 0.4999 | 934.271 | 1394.8
308.15 K, x1 = 0.5645 | 948.386 | 1410.4
308.15 K, x1 = 0.6971 | 973.957 | 1443.4
308.15 K, x1 = 0.7909 | 988.935 | 1462.8
308.15 K, x1 = 0.8906 | 1004.73 | 1485.2
308.15 K, x1 = 1 | 1018.87 | 1506
313.15 K, x1 = 0.0997 | 805.495 | 1252.2
313.15 K, x1 = 0.2019 | 844.503 | 1286.4
313.15 K, x1 = 0.2953 | 875.146 | 1316.3
313.15 K, x1 = 0.4033 | 905.801 | 1347.6
313.15 K, x1 = 0.4999 | 929.461 | 1374.7
313.15 K, x1 = 0.5645 | 943.637 | 1390.2
313.15 K, x1 = 0.6971 | 969.311 | 1423.3
313.15 K, x1 = 0.7909 | 984.35 | 1442.6
313.15 K, x1 = 0.8906 | 1000.21 | 1465.5
313.15 K, x1 = 1 | 1014.41 | 1486.8
318.15 K, x1 = 0.0997 | 800.149 | 1232.4
318.15 K, x1 = 0.2019 | 839.318 | 1266.8
318.15 K, x1 = 0.2953 | 870.091 | 1296.9
318.15 K, x1 = 0.4999 | 924.64 | 1354.8
318.15 K, x1 = 0.7909 | 979.759 | 1422.4
318.15 K, x1 = 0.8906 | 995.681 | 1445.9
318.15 K, x1 = 1 | 1009.95 | 1467.8
318.16 K, x1 = 0.4033 | 900.875 | 1327.4
318.16 K, x1 = 0.5645 | 938.874 | 1370.2
318.16 K, x1 = 0.6971 | 964.657 | 1403.3
323.15 K, x1 = 0.4033 | 895.938 | 1307.5
323.16 K, x1 = 0.0997 | 794.775 | 1212.6
323.16 K, x1 = 0.2019 | 834.109 | 1247.3
323.16 K, x1 = 0.2953 | 865.017 | 1277.6
323.16 K, x1 = 0.4999 | 919.805 | 1335
323.16 K, x1 = 0.5645 | 934.1 | 1350.3
323.16 K, x1 = 0.6971 | 959.996 | 1383.4
323.16 K, x1 = 0.7909 | 975.164 | 1402.4
323.16 K, x1 = 0.8906 | 991.156 | 1426.5
323.16 K, x1 = 1 | 1005.48 | 1448.9
